Patent publication US20250205155A1, “FORMULATIONS COMPRISING MELPHALAN FLUFENAMIDE AND CYCLODEXTRIN” (Oncopeptides Innovation AB, priority 2022, published 2025)
Values joined by “and” are separate entries in the source; they are usually repeats but may differ in a detail not shown here. Equal values may be shown once. Where a name gives a salt, the structure may show the parent alone. Read-outs that look alike come from different tables or passages of the source.

Assays:
[1] = Stability of lyophilised Ex 1-excipient mixtures in 5% glucose solution (HPLC); format: physicochemical; conditions: 25° C. to 30° C. for 22 hours
Protocol: The following excipients were used: trehalose dihydrate, sucrose, polysorbate 80, α-cyclodextrin, β-cyclodextrin, propylene glycol, 2-hydroxypropyl-β-cyclodextrin, and γCD.
(§1) A stock solution of each excipient was prepared in water (10 mg/mL). An aliquot of 400 μL (4 mg) of each stock solution was then transferred to a separate transparent 4 mL vial. The vials containing the stock solutions were then cooled and lyophilized using a Christ Alpha 2-4 LSC Plus instrument.
(§2) The mixtures were cooled and lyophilized overnight.
1 mL of a 5% glucose solution (w/v in water) containing 0.08 mg/mL 3-methoxybenzoic as an internal standard was added to each vial containing a lyophilized Ex 1-excipient mixture. The vials were then mixed by shaking for 15 seconds, and then shaken occasionally for 5 minutes. The solutions were transferred to Whatman® Mini-UniPrep® syringeless filters and filtered according to the manufacturer's instructions. The filtrate was transferred to a glass vial to prevent further dissolution. These filtrates represent the starting concentrations of melphalan flufenamide for each solution (i.e. the to samples). The to samples were analysed by HPLC as described below and then stored at 25° C. to 30° C. for 22 hours. […]

[2] = Rate of dissolution of lyophilised Ex 1-excipient mixtures in 5% glucose solution, 15 seconds (HPLC); format: physicochemical; conditions: solution containing γCD
Protocol: as §1, §2
A 5% glucose solution (w/v in water) containing 0.08 mg/mL 3-methoxybenzoic as an internal standard was added to each vial containing a lyophilized Ex 1-excipient mixture. The vials were then mixed by shaking for 15 seconds. Approximately half of the solution was then transferred to a Whatman® Mini-UniPrep© syringeless filter and filtered according to the manufacturer's instructions. The filtrate was immediately transferred to a glass vial to prevent further dissolution.
HPLC analysis of each sample was performed using the same method as described in Example 1.

[3] = Solubility of Ex 1 in aqueous solution in the absence of an excipient; conditions: aqueous solution without excipient, water
[4] = Ex 1 lyophilised with HPγCD: reconstitution and stability at infusion concentration; format: physicochemical; conditions: for reconstitution concentration: lyophilised with HPγCD (1:67 w/w), 0.9% saline, fully dissolved
Protocol: The weight ratio (w/w) of melphalan flufenamide (free base):hydroxypropyl-γ-cyclodextrin was 1:67. The mixture was stirred for 30 min at room temperature before being lyophilized overnight. A white, fluffy lyo-cake was formed. The lyophilized material was kept refrigerated for 5 months. 0.9% saline (9000 μL) was added to the lyo-cake and the mixture was vortexed for 1 min. The material was fully dissolved to make a 3.0 mg/mL solution. […] The reconstituted solution was diluted to 0.10 mg/mL in 0.9% saline. […] The stability of the approved drug product […] at 0.10 mg/mL in 0.9% saline after 17 hours at room temperature is approximately 56%.

[5] = Stability of Ex 1 / Ex 2 propylene glycol liquid formulations diluted in γCD saline or glucose solution; format: physicochemical
Protocol: Stock solutions containing 16 mg/mLγCD in […].
The samples were mixed by vortex for 10 seconds and then filtered through a 0.45 μm PTFE filter. The filtrates were analysed by HPLC immediately after sample preparation (i.e. at t0), and then after 2 hours, 5 hours, 7 hours or 18 hours of storage at RT (approximately 23° C.).

[6] = Ex 1 lyophilised with HPγCD in different ratios: reconstitution and stability; format: physicochemical; conditions: HPγCD weight ratio 1:16, 1:20, 1:24 or 1:28, 20 hours at room temperature
Protocol: A 10 wt % solution of hydroxypropyl-γ-cyclodextrin (1750 mg) in t-BuOH/water 1:1 (15.75 g) and a 1:1 tBuOH/water solution were prepared. […] The solutions were lyophilized for 4 d.
The lyophilized material of entries 1 to 4 of Table 10 was reconstituted with 0.9% saline to make 0.5 mg/mL, 1.0 mg/mL and 2.0 mg/mL reconstituted solutions. The lyophilized material fully dissolved in each reconstituted solution. Portions of the 0.5 mg/mL, 1.0 mg/mL and 2.0 mg/mL reconstituted solutions were then diluted to 0.10 mg/mL in 0.9% saline (infusion concentration) and these 0.10 mg/mL solutions, and also a samples of the 0.5 mg/mL reconstituted solutions, were analyzed by HPLC after 0, 4 and 20 hours at room temperature.

[7] = format: physicochemical
Protocol: The samples were analysed after 0 h and the samples were stored at room temperature or in the fridge and analysed after 18 h. The remaining API (i.e. the remaining melphalan flufenamide) was reported relative to the area under the curve at t=0 h.
(§3) Analytical HPLC was carried out on an Agilent Series 1100 system using a Kinetex XB C18 (2.6 μm, 3.0×50 mm) column with 0.1% TFA in MiliQ H2O/MeCN as mobile phase (flow 1 mL/min). 5-97% MeCN in 3 minutes.

[8] = Stability of melphalan flufenamide infusion solution with and without γCD at 5° C.; format: physicochemical; conditions: for decrease of melphalan flufenamide content: infusion solution not comprising γCD
Protocol: A control infusion solution containing no γCD was prepared in accordance with the following method, which is in line with the protocol set out in the U.S. Prescribing Information (USPI) for PEPAXTO® dated February 2021:
An infusion solution containing γCD was prepared according to steps 1 to 5 above, except that step 2 included a step of adding 320 mg of γCD into each vial (i.e. 1:16 ratio w/w of melphalan flufenamide to γCD) followed by mixing the powders by vortex. Steps 3 to 5 were then carried out as set out above.
Immediately after preparation of each infusion solution, 4 mL was withdrawn from the infusion bag and the melphalan flufenamide content was determined by HPLC analysis. These samples represent each infusion solution at the start of the stability study (i.e. the to samples). Each infusion bag was then stored at 5° C. […] The melphalan flufenamide content of each sample was determined by HPLC analysis.
The melphalan flufenamide content of each sample of infusion solution was determined by HPLC analysis using the method described in Example 5.

[9] = Stability of melphalan flufenamide drug product in γCD 5% glucose solutions at RT; format: physicochemical
Protocol: A stock solution of 23 mg/mL γCD 5% glucose solution (w/v in water) was used to prepare working solutions containing 1 mg, 5 mg, 10 mg, 15 mg, 18 mg, 20 mg or 23 mg/mL γCD.
Approximately 50 mg of the melphalan flufenamide drug product (containing approximately 1 mg of melphalan flufenamide) was transferred to […] different 4 mL clear glass vials, followed by addition of 1 mL of a γCD working solution. The solutions were stirred for 5 minutes. The solutions were then filtered through a 0.45 μm PTFE filter. The filtrates were analysed by HPLC immediately after sample preparation (i.e. at t0), and then after 2 hours, 5 hours, 7 hours or 18 hours of storage at RT (approximately 23° C.).
HPLC analysis was performed using an Agilent 1260 series HPLC. Analyses were performed using a Poroshell column 3×50 mm EC-C18 column with a gradient of 5% to 97% acetonitrile, 0.1% formic acid over 3 min and a flow of 1 mL/min. An injection volume 0.2 μL was used. The melphalan flufenamide concentration in each sample was determined by HPLC analysis using a calibration curve for melphalan flufenamide.

[10] = Stability of Ex 2 in glucose or saline with and without 16 mg/mL HPγCD at room temperature; format: physicochemical; conditions: 5 hours at room temperature
Protocol: Stock solutions of 16 mg/mL hydroxypropyl-γ-cyclodextrin in 5% glucose and in 0.9% saline were prepared. 20 mg/mL (free base) solution of the compound of Example 2 in propylene glycol was prepared.
To a 2 mL clear vial was added the amounts of each stock solution according to the Table 4 below.
The samples were stored at room temperature and analysed after 0, 2, 5 and 23 h on HPLC. The degradation of the compound was reported relative to the area under the curve at time=0 h. The percentage figure in Table 5 below represents the proportion of remaining compound of Ex 2.
as §3

CCOC(=O)[C@H](Cc1ccc(F)cc1)NC(=O)[C@@H](N)Cc1ccc(N(CCCl)CCCl)cc1 [Ex 1, melphalan flufenamide hydrochloride]
decrease of melphalan flufenamide content relative to t0 ([1]; solution with γCD): 31%
Ex 1 remaining in solution ([1]; γCD 5% glucose solution, γCD:melphalan flufenamide about 4:1 w/w): 69%
Ex 1 dissolved within the first 15 seconds of mixing [2]: 68%
solubility [3]: < 0.4 mg/mL
Ex 1 remaining ([4]; lyophilised with HPγCD 1:67 w/w, reconstituted 3.0 mg/mL, diluted to 0.10 mg/mL in 0.9% saline, 17 hours at room temperature): 91%
reconstitution concentration ([4]; hydrochloride): 3.0 mg/mL and 3 mg/mL

[2H]C([2H])([2H])C([2H])([2H])OC(=O)[C@H](Cc1ccc(F)cc1)NC(=O)[C@@H](N)Cc1ccc(N(CCCl)CCCl)cc1 [Ex 2, (^2H5)ethyl (2S)-2-[(2S)-2-amino-3-{4-[bis(2-chloroethyl)amino]phenyl}propanamido]-3-(4-fluorophenyl)propanoate hydrochloride]
stability of Ex 2 in control solutions ([5]; 6% propylene glycol and saline only or 6% propylene glycol and 5% glucose only): poor stability
stability of Ex 2 in the presence of γCD ([5]; saline or 5% glucose solution, γCD about 16:1, 30:1, 80:1 w/w, hydrochloride): improved the stability

CCOC(=O)[C@H](Cc1ccc(F)cc1)NC(=O)[C@@H](N)Cc1ccc(N(CCCl)CCCl)cc1 [melphalan flufenamide, ethyl (2S)-2-[[(2S)-2-amino-3-[4-[bis(2-chloroethyl)amino]phenyl]propanoyl]amino]-3-(4-fluorophenyl)propanoate]
melphalan flufenamide content retained ([6]; 0.1 mg/mL): over 80%
melphalan flufenamide content retained ([6]; 0.5 mg/mL): > 90%
melphalan flufenamide content retained ([7]; 0.2 mg/mL, HPγCD weight ratio 1:20, 1:24, 1:28, 1:32, 1:36 or 1:40, 18 hours at room temperature): over 78%
melphalan flufenamide content retained ([7]; 0.2 mg/mL, HPγCD weight ratio 1:20 to 1:40, 18 hours in a fridge): over 93%
melphalan flufenamide content retained ([7]; aqueous solution, HPγCD about 36:1 w/w, 18 hours at room temperature): 87%
reconstitution concentration [4]: up to 3.0 mg/mL
decrease of melphalan flufenamide content relative to t0 ([8]; control infusion solution without γCD, 43 hours at 5° C.): approximately 10%
decrease of melphalan flufenamide content ([8]; 24 hours at 5° C.): approximately 7%
decrease of melphalan flufenamide content ([8]; 24 hours at 5° C., listed as melflufen flufenamide): about 5%
degradation rate ([8]; saline infusion solution comprising γCD, 5° C.): about 1 % per 24 hours
decrease of melflufen flufenamide content ([8]; saline infusion solution not comprising γCD, 48 hours at 5° C.): about 8%
decrease of melflufen flufenamide content ([8]; saline infusion solution with γCD, 24 hours at 5° C.): about 1%
decrease of melflufen flufenamide content ([8]; saline infusion solution with γCD, 48 hours at 5° C.): about 2%
stabilisation by γCD ([9]; 1 to 23 equivalents of γCD (w/w), up to 18 hours): stabilised
stability by γCD ratio ([9]; 15, 18 and 23 equivalents of γCD (w/w)): most stable
average decrease of melflufen flufenamide content ([10]; saline infusion solution with hydroxypropyl-γCD): about 4%
average decrease of melflufen flufenamide content ([10]; saline infusion solution without HPγCD): about 40%
